# According to ChEMBL document CHEMBL1921698, “Identification of small-molecule inhibitors of Trypansoma cruzi replication” (Bioorg Med Chem Lett, 2011):
# Key:
# [1] = Chemical stability of the compound in phosphate buffered saline assessed as compound remaining after 48 hrs; assay type: physicochemical; settings: read-out: Stability
# NIH3T3 [2] = assay: Cytotoxicity against mouse NIH/3T3 cells up to 19.5 uM; assay type: cell-based
# Trypanosoma cruzi = assay: Antitrypanosomal activity against trypomastigote form of Trypanosoma cruzi Tulahuen expressing beta-galactosidase infected in mouse NIH/3T3 cells assessed as inhibition of parasite replication after 4 days by betagalactosidase-based luminescence assay; assay type: functional, organism-based; settings: NIH3T3, 96 h
# NIH3T3 [3] = assay: Cytotoxicity against mouse NIH/3T3 cells; assay type: cell-based; settings: for Activity: mouse, nih3t3; for IC50: Mus musculus, NIH3T3
# [4] = Solubility of compound in phosphate buffered saline buffer; assay type: physicochemical
# [5] = Selectivity ratio of IC50 for mouse NIH/3T3 cells to IC50 for trypomastigote form of Trypanosoma cruzi Tulahuen; assay type: ADME, cell-based; settings: read-out: Ratio IC50
Compound,remaining at 48 h [1] [%],IC50 (Trypanosoma cruzi) [µM],solubility [4] [µM],Activity (NIH3T3 [2]),Activity (NIH3T3 [3]),selectivity ratio [5],IC50 (NIH3T3 [3]) [µM]
CN(Cc1ccccc1)C(=O)C1CCCN(Cc2ccccc2C(F)(F)F)C1 (centres undefined),–,15.9,> 100,–,–,3.98,63.3
Cn1cc(CN2CCCC(C(=O)c3ccc(C(C)(C)C)cc3)C2)cn1 (centres undefined),–,1.63,> 200,–,–,–,–
COc1ccc(C(=O)C2CCCN(CC3CCCCC3)C2)cc1OC (centres undefined),–,1.57,> 200,–,–,–,–
COc1ccccc1CN1CCCC(C(=O)N(C)Cc2ccccc2)C1 (centres undefined),–,10.8,> 100,–,–,7.16,77.3
CN(Cc1ccccc1)C(=O)C1CCCN(Cc2ccc([N+](=O)[O-])cc2)C1 (centres undefined),–,7.63,> 100,–,–,6.68,51
Cc1cc(C)n(CC(=O)N2CCCC(C(=O)c3cccc(OC(C)C)c3)C2)n1 (centres undefined),–,16.5,> 200,–,–,–,–
COc1ccc(C(=O)C2CCCN(CCc3ccccc3)C2)cc1OC (centres undefined),–,0.518,> 200,–,–,37.7,19.5
COc1ccc(CCN(C)C(=O)C2CCCN(Cc3ccc(F)cc3)C2)cc1OC (centres undefined),–,4.33,> 100,–,–,14.9,64.7
CCN(CC)C(=O)C1CCCN(Cc2cccc(Cl)c2)C1 (centres undefined),–,9.91,> 100,–,–,16.6,164

# Now from value to compound, other results behind:
remaining at 48 h [1] [%],IC50 (Trypanosoma cruzi) [µM],solubility [4] [µM],Compound,Activity (NIH3T3 [2]),Activity (NIH3T3 [3]),selectivity ratio [5],IC50 (NIH3T3 [3]) [µM]
84,0.109,> 500,COc1ccc(CCN(C)C(=O)C2CCCN(Cc3ccc(OC)c(OC)c3)C2)cc1OC (centres undefined),Non-toxic,Non-toxic,–,–
–,1.4,> 100,COc1ccc(CCN(C)C(=O)C2CCCN(Cc3ccccc3)C2)cc1OC (centres undefined),–,–,33.6,47
–,3.01,> 100,CN(Cc1ccccc1)C(=O)C1CCCN(Cc2ccc(Br)cc2)C1 (centres undefined),–,–,24.6,74.3
–,3.54,> 100,COc1ccc(CN2CCCC(C(=O)N3CCc4ccccc4C3)C2)cc1OC (centres undefined),–,–,11.8,41.7
–,0.054,> 200,CC(C)Oc1cccc(C(=O)C2CCCN(Cc3cnn(C(C)C)c3)C2)c1 (centres undefined),–,Non-toxic,–,–
–,1.01,> 100,COc1ccc(CN2CCCC(C(=O)N3CCCC3)C2)c(OC)c1OC (centres undefined),–,Non-toxic,–,–
–,0.056,> 200,CCn1ncc(CN2CCCC(C(=O)c3cccc(OC(C)C)c3)C2)c1C (centres undefined),–,Non-toxic,–,–
–,0.57,> 100,CN(Cc1ccccc1)C(=O)C1CCCN(Cc2cccc(Cl)c2)C1 (centres undefined),–,–,123,70.3
–,0.035,> 500,CCCn1ncc(CN2CCCC(C(=O)c3cccc(OC(C)C)c3)C2)c1C (centres undefined),Non-toxic,Non-toxic,–,–
–,0.008,> 100,CN(Cc1ccccc1)C(=O)C1CCCN(Cc2ccc(C(F)(F)F)cc2)C1 (centres undefined),–,–,> 1000,61.6
–,0.25,> 200,CCCn1cc(CN2CCCC(C(=O)c3cccc(C(F)(F)F)c3)C2)cn1 (centres undefined),–,–,–,–
–,0.763,> 100,COc1cc2c(cc1OC)CN(C(=O)C1CCCN(Cc3ccccc3)C1)CC2 (centres undefined),–,–,69.1,52.7
